Some results are limits rather than exact numbers.

The text below walks through data of patent US11649227B2, “Allosteric chromenone inhibitors of phosphoinositide 3-kinase (PI3K) for the treatment of disease” (Petra Pharma Corporation, priority 2020, dated 2023).

Assay [1] has as its target human full length PIK3CA Wild-type (p110α/p85α complex) (Homo sapiens (Human), UniProt P42336). Kind of assay: PI3K-Alpha kinase (PIK3CA) activity, wild-type, Transcreener ADP2 FI assay. The conditions noted are these: PI3K-α (PIK3CA) wild-type, biochemical. On the procedure: (§1) PI3K-Alpha kinase (PIK3CA) activity, wild-type and H1047R mutant and determining IC50 values for inhibitors
(§2) Recombinant, catalytically active human full length PIK3KA Wild-type and H1047R mutant were purchased as 1:1 complex of N-terminal 6×his tagged p110<(catalytic) and untagged p85<(regulatory subunit) from EMD Millipore Sigma (cat. no. 14-602M and 14-792M, respectively). The enzyme stocks were diluted to 5× stocks in buffer (20 mM HEPES pH 7.4, 100 mM NaCl, 0.5 mM EGTA, 0.01% triton-x-100) just before use. PIP2diC8 (Avanti Polar Lipids Inc., cat. no. 850185) or phosphoinositol-4,5-bisphosphate with phosphoserine (PIP2:PS) membrane (Thermo Fisher Scientific, cat. no. PV5100) was used as lipid substrates. PIP2diC8 lyophilized powder and PIP2:PS (1:19) membrane stock (1 mM in PIP2) were separately dissolved in milliQ water to a concentration of 250 uM and stored in −20° C. 10 mM stocks of compounds were serially diluted (3×) in neat DMSO and stored in a dessicator at room temperature. 5× compound stocks in 25% DMSO were prepared fresh from neat DMSO stocks. Wild-type (WT) and H1047R mutant protein, along with buffer components (except ATP), were incubated with or without compound at 27° C. for 1h. After incubation, the reaction was initiated by the addition of 5 uL of 125 uM ATP. A typical assay mixture (25 uL) comprised 40 mM HEPES buffer, pH 7.4, 25 mM MgCl2, 0.01% v/v triton-X-100, 5% v/v DMSO, 20 mM NaCl, 1-5 nM wt or H1047R, 25 uM ATP, and 50 uM PTP2diC8 or PTP2 in membrane. The reaction was allowed to proceed until about […] (2.5 uM ADP) after which time, 10 uL of reaction mixture was quenched with 25 uL of transcreener reagent (Transcreener ADP2 FI assay kit, BellBrook labs, Cat. No. 3013). The contents were incubated at rt for 1h and fluorescence was measured using a plate reader (Paradigm, Molecular Devices). The same assay was also run at pH 6.0 or 6.4 using MOPS buffer (Fisher BioReagents, CAS 1132-61-2). A calibration curve was generated under identical buffer conditions with varying ADP amounts. Using that, the observed fluorescence was converted to uM ADP. A plot between [ADP] and log[I] yielded the dose-response curves that enabled the calculation of IC50s.

For assay [2], the target named is human full length PIK3CA H1047R mutant (p110α/p85α complex) (Homo sapiens (Human), UniProt P42336, H1047R). The assay can be described thus: PI3K-Alpha kinase (PIK3CA) activity, H1047R mutant, Transcreener ADP2 FI assay. Conditions: PI3K-α (PIK3CA) H1047R mutant, biochemical. On the procedure: as §1, §2
human full length PIK3CA H1047R mutant (p110α/p85α complex), sequence (P42336 whole entry H1047R): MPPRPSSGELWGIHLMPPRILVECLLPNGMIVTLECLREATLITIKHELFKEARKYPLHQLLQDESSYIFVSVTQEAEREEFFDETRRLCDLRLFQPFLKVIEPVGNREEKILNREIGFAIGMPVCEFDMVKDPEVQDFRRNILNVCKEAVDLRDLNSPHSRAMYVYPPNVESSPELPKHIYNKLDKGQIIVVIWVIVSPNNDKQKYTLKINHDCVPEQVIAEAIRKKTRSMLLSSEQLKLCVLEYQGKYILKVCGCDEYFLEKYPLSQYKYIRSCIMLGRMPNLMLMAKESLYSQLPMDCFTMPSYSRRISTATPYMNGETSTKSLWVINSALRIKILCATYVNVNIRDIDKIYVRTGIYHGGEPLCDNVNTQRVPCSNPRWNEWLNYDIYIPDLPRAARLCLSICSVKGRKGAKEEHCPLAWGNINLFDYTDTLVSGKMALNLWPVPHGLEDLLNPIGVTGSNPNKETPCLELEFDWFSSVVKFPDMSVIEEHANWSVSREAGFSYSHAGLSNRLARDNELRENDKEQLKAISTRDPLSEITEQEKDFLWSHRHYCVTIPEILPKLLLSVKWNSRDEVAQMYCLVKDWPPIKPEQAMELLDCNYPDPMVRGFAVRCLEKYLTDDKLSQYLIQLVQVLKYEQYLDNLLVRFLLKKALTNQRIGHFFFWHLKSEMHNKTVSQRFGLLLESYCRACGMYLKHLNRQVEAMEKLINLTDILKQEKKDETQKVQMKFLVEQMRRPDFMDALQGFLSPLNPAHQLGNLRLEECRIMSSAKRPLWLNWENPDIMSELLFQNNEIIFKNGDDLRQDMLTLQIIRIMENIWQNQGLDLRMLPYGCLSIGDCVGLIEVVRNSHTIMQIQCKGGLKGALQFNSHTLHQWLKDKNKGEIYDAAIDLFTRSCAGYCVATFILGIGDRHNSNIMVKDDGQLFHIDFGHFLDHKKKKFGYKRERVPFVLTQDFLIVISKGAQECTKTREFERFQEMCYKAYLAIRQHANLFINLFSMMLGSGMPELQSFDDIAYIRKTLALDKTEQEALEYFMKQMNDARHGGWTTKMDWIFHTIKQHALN
human full length PIK3CA H1047R mutant (p110α/p85α complex), sequence (P27986 whole entry partner): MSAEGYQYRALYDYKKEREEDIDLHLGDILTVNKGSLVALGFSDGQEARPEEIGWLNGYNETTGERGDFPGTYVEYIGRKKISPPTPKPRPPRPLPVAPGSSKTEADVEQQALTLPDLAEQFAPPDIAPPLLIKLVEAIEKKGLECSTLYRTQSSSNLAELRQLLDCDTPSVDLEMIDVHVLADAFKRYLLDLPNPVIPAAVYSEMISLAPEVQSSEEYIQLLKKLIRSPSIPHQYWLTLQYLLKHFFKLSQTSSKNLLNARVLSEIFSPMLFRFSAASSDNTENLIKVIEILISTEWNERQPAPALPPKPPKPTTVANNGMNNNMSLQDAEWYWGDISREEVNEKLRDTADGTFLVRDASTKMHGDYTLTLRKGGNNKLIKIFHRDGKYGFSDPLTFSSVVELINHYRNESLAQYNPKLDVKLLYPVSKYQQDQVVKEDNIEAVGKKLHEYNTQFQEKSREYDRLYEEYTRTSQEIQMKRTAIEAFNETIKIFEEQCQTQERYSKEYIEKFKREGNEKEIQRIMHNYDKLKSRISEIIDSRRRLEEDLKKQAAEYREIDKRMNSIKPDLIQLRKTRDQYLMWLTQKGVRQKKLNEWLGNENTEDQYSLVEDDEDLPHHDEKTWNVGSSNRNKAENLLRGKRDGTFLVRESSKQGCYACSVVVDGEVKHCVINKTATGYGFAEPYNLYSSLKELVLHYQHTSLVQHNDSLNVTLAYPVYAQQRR

human full length PIK3CA Wild-type (p110α/p85α complex), sequence (P42336 whole entry): as the sequence (P42336 whole entry H1047R) above, with R1047H counted along it
human full length PIK3CA Wild-type (p110α/p85α complex), sequence (P27986 whole entry partner): as the sequence (P27986 whole entry partner) above

What is called IC50 is the concentration at which inhibition is half-maximal. Higher therefore signals weaker potency in that assay. With `Cc1cc(C(C)Nc2ccccc2C(=O)O)c2oc(N3CCC(C)(C)CC3)c(C3CC3)c(=O)c2c1` (single isomer, unassigned) [Example 51, 2-[1-[3-Cyclopropyl-2-(4,4-dimethyl-1-piperidyl)-6-methyl-4-oxo-chromen-8-yl]ethyalmino]benzoic acid], the IC50 in assay [1] is 1000 to 5000 nM; in assay [2] it was less than 500 nM. For `Cc1cc(C(C)Nc2ccccc2C(=O)O)c2oc(N3CCC(C)(C)CC3)c(-c3cnoc3)c(=O)c2c1` (single isomer, unassigned) [Example 53] the same measures were 500 to 1000 nM and less than 500 nM.

Turning to `Cc1cc(C(C)Nc2ccccc2C(=O)O)c2oc(N3CCC(C)(C)CC3)c(-c3cnoc3)c(=O)c2c1` (single isomer, unassigned) [Example 54, 2-[1-[2-(4,4-Dimethyl-1-piperidyl)-3-isoxazol-4-yl-6-methyl-4-oxo-chromen-8-yl]ethylamino]benzoic acid], the IC50 in assay [1] and in assay [2] was more than 10000 nM throughout. As to `COC12CC(C1)N(c1cc(=O)c3cc(C)cc(C(C)Nc4ccccc4C(=O)O)c3o1)C2` (single isomer, unassigned) [Example 111, 2-[1-[2-(4-Methoxy-2-azabicyclo[2.1.1]hexan-2-yl)-6-methyl-4-oxo-chromen-8-yl]ethylamino]benzoic acid], the IC50 in assay [1] and in assay [2] was more than 10000 nM in each case.

As for `COC12CC(C1)N(c1cc(=O)c3cc(C)cc(C(C)Nc4ccccc4C(=O)O)c3o1)C2` (single isomer, unassigned) [Example 112, 2-[1-[2-(4-Methoxy-2-azabicyclo[2.1.1]hexan-2-yl)-6-methyl-4-oxo-chromen-8-yl]ethylamino]benzoic acid], the IC50 in assay [1] fell in the range of 1000 to 5000 nM; in assay [2] it was 500 to 1000 nM. Consider `Cc1cc(C(C)Nc2ccccc2C(=O)O)c2oc(N3Cc4ccc(F)cc4C3)cc(=O)c2c1` (single isomer, unassigned) [Example 123, 2-[1-[2-(5-Fluoroisoindolin-2-yl)-6-methyl-4-oxo-chromen-8-yl]ethylamino]benzoic acid], for which the IC50 in assay [1] was 500 to 1000 nM; in assay [2] it was less than 500 nM. For the compound `Cc1cc(C(C)Nc2ccccc2C(=O)O)c2oc(N3Cc4ccc(F)cc4C3)cc(=O)c2c1` (single isomer, unassigned) [Example 124, 2-[1-[2-(5-Fluoroisoindolin-2-yl)-6-methyl-4-oxo-chromen-8-yl]ethylamino]benzoic acid], the figures for the IC50 in assay [1] and in assay [2] were more than 10000 nM and 5000 to 10000 nM, respectively. For `Cc1cc(C(C)Nc2ccccc2C(=O)O)c2oc(N3CCC(c4ccncc4)C3)cc(=O)c2c1` (single isomer, unassigned) [Example 194, 2-[1-[6-Methyl-4-oxo-2-[3-(4-pyridyl)pyrrolidin-1-yl]chromen-8-yl]ethylamino]benzoic acid 2,2,2-trifluoroacetic acid] the same measures were more than 10000 nM and 500 to 1000 nM.

For `Cc1cc(C(C)Nc2ccccc2C(=O)O)c2oc(N3CC4(CCN4c4ccccc4)C3)cc(=O)c2c1` (single isomer, unassigned) [Example 203, 2-[1-[6-Methyl-4-oxo-2-(1-phenyl-1,6-diazaspiro[3.3]heptan-6-yl)chromen-8-yl]ethylamino]benzoic acid 2,2,2-trifluoroacetic acid], the IC50 in assay [1] is 1000 to 5000 nM; in assay [2], less than 500 nM. For `CCC1(c2ccccc2)CN(c2cc(=O)c3cc(C)cc(C(C)Nc4ccccc4C(=O)O)c3o2)C1` (single isomer, unassigned) [Example 212, 2-[1-[2-(3-Ethyl-3-phenyl-azetidin-1-yl)-6-methyl-4-oxo-chromen-8-yl]ethylamino]benzoic acid 2,2,2-trifluoroacetic acid] the same measures were 500 to 1000 nM and less than 500 nM. Compound `Cc1cc(C(C)Nc2ccsc2C(=O)O)c2oc(N3CCC(C)(C)CC3)cc(=O)c2c1` (centres unmarked) [Example 39, 3-[1-[2-(4,4-Dimethyl-1-piperidyl)-6-methyl-4-oxo-chromen-8-yl]ethylamino]thiophene-2-carboxylic acid] showed an IC50 in assay [2] of 1000 to 5000 nM. Same read-out and setting: then `Cc1cc(C(C)Nc2ccccc2C(=O)O)c2oc(N3CCCC4(CNC(=O)C4)C3)cc(=O)c2c1` (centres unmarked) [Example 61, 2-[1-[6-Methyl-4-oxo-2-(3-oxo-2,7-diazaspiro[4.5]decan-7-yl)chromen-8-yl]ethylamino]benzoic acid], with 1000 to 5000 nM; and `Cc1cc(C(C)Nc2ccccc2C(=O)O)c2oc(N3CC(N(C)C)C3)cc(=O)c2c1` (centres unmarked) [Example 68, 2-[1-[2-[3-(Dimethylamino)azetidin-1-yl]-6-methyl-4-oxo-chromen-8-yl]ethylamino]benzoic acid], with 1000 to 5000 nM; and `Cc1cc(C(C)Nc2ccccc2C(=O)O)c2oc(N3CC4CCC(C3)O4)cc(=O)c2c1` (centres unmarked) [Example 82, 2-[1-[6-Methyl-2-(8-oxa-3-azabicyclo[3.2.1]octan-3-yl)-4-oxo-chromen-8-yl]ethylamino]benzoic acid], with 1000 to 5000 nM. Compound `Cc1cc(C(C)Nc2ccccc2C(=O)O)c2oc(N3CCS(=O)(=O)CC3)cc(=O)c2c1` (centres unmarked) [Example 117, 2-[1-[2-(1,1-Dioxo-1,4-thiazinan-4-yl)-6-methyl-4-oxo-chromen-8-yl]ethylamino]benzoic acid] came in with an IC50 in assay [2] of 1000 to 5000 nM.

With `Cc1cc(C(C)Nc2ccccc2C(=O)O)c2oc(N3CCn4cnnc4C3)cc(=O)c2c1` (centres unmarked) [Example 163, 2-[1-[2-(6,8-Dihydro-5H-[1,2,4]triazolo[4,3-a]pyrazin-7-yl)-6-methyl-4-oxo-chromen-8-yl]ethylamino]benzoic acid], the IC50 in assay [2] is 1000 to 5000 nM. Same read-out and setting: then `Cc1cc(C(C)Nc2ccccc2C(=O)O)c2oc(NC34CC5CC(CC(CO)(C5)C3)C4)cc(=O)c2c1` (centres unmarked) [Example 169], with 1000 to 5000 nM. The compound `COc1ccc(NC(C)c2cc(C)cc3c(=O)cc(N4Cc5ccccc5C4)oc23)c(C(=O)O)n1` (centres unmarked) [Example 237, 3-[1-(2-Isoindolin-2-yl-6-methyl-4-oxo-chromen-8-yl)ethylamino]-6-methoxy-pyridine-2-carboxylic acid] showed an IC50 in assay [2] of 5000 to 10000 nM.

The compound `Cc1cc(C(C)Nc2cccc(F)c2C(=O)O)c2oc(N3Cc4ccc(F)cc4C3)cc(=O)c2c1` (centres unmarked) [Example 238, 2-Fluoro-6-[1-[2-(5-fluoroisoindolin-2-yl)-6-methyl-4-oxo-chromen-8-yl]ethylamino]benzoic acid] showed an IC50 in assay [2] of 1000 to 5000 nM. `Cc1cc(C(C)Nc2ccc(Cl)nc2C(=O)O)c2oc(N3CCC4(CC3)CC4)c(C)c(=O)c2c1` (centres unmarked) [Example 302, 3-[1-[2-(6-Azaspiro[2.5]octan-6-yl)-3,6-dimethyl-4-oxo-chromen-8-yl]ethylamino]-6-chloro-pyridine-2-carboxylic acid] yielded an IC50 in assay [1] of 500 to 1000 nM. As for `CNC(=O)C1CCN(c2cc(=O)c3cc(C)cc(C(C)Nc4ccccc4C(=O)O)c3o2)CC1` (centres unmarked) [Example 371, 2-[1-[6-Methyl-2-[4-(methylcarbamoyl)-1-piperidyl]-4-oxo-chromen-8-yl]ethylamino]benzoic acid], in assay [2], the IC50 lay in the range of 1000 to 5000 nM. Still for that read-out and setting: then `COC1CCN(c2cc(=O)c3cc(C)cc(C(C)Nc4ccccc4C(=O)O)c3o2)CC1` (centres unmarked) [Example 373, 2-[1-[2-(4-Methoxy-1-piperidyl)-6-methyl-4-oxo-chromen-8-yl]ethylamino]benzoic acid], with 500 to 1000 nM. In assay [1], `CC(Nc1ccccc1C(=O)O)c1cc(C(F)(F)F)cc2c(=O)cc(N3CCC(F)(F)CC3)oc12` (centres unmarked) [Example 396, 2-[1-[2-(4,4-Difluoro-1-piperidyl)-4-oxo-6-(trifluoromethyl)chromen-8-yl]ethylamino]benzoic acid 2,2,2-trifluoroacetic acid] yielded an IC50 of 1000 to 5000 nM. On the same count and under the same terms, for `CC(Nc1ccccc1C(=O)O)c1cc(F)cc2c(=O)cc(N3CCC4(CC3)CC4)oc12` (centres unmarked) [Example 398, 2-[1-[2-(6-Azaspiro[2.5]octan-6-yl)-6-fluoro-4-oxo-chromen-8-yl]ethylamino]benzoic acid 2,2,2-trifluoroacetic acid] the value was 1000 to 5000 nM; for `CC(Nc1ccccc1C(=O)O)c1cc(F)cc2c(=O)cc(N3CCC(F)(F)CC3)oc12` (centres unmarked) [Example 399], 1000 to 5000 nM.
